Measured values as given in article PMC8360069, “Prediction and Validation of a Druggable Site on Virulence Factor of Drug Resistant Burkholderia cenocepacia” (Chemistry (Weinheim an Der Bergstrasse, Germany), 2021).

Legend:
Format in all cases: binding
[1] = target: T1, BC2L-C (Burkholderia cenocepacia, UniProt B4EH86); assay: ITC; X-ray crystal structure ([…] Å, with Globo H); STD-NMR
T1 construct: gene BCAM0185; N-terminal domain (BC2L-C-nt)

[2] = target: T1, BC2L-C; assay: STD-NMR in the presence of Me-α-L-Fuc (no density in soaked crystals)
[3] = target: T1, BC2L-C; assay: STD-NMR; thermal shift assay (about +[…] °C)

T1 sequence (B4EH86 entry or part of it): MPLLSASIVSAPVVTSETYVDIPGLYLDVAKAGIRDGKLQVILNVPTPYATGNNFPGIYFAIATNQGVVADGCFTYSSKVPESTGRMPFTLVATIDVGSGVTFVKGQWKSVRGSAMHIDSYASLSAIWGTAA

Compound: Cc1nccn1-c1cccc(CN)c1 [KL3, 3‐(2‐Methyl‐1H‐imidazol‐1‐yl) benzylamine]
- Kd [1]: 877 µM

Compound: NC(CO)Cc1ccccc1 (stereo not drawn) [KL9]
- STD-NMR in the presence of Me-α-L-Fuc (no density in soaked crystals) [2]: confirming the binding event for the three fragments in the BC2L‐C‐nt/fucose complex

Compound: CO[C@@H]1O[C@@H](C)[C@@H](O)[C@@H](O)[C@@H]1O [Methyl α-L-fucoside]
- STD-NMR; thermal shift assay (about +2 °C) [3]: Me‐α‐L‐Fuc was initially tested alone in the experiment, verifying that it binds BC2L‐C‐nt
